According to article PMC9405135, “Tuning the Biological Activity of Camphorimine Complexes through Metal Selection” (Antibiotics, 2022):
Where two headings read alike, the source gives them in different places.

Experiments:
OVCAR3 cells [1] = assay: MTT cytotoxicity, OVCAR3 ovarian cancer cells; settings: for IC50: read-out: IC50 OVCAR3; for SI = selectivity index = IC50(HDF)/IC50(OVCAR3): HDF versus OVCAR3, 24 h
[2] = Reduction potential by cyclic voltammetry; type: physicochemical; parameters: E1/2red (reduction potential, footnote d): reference not given here; settings: Bu4NBF4/CH3CN electrolyte, ±10 mV; for Epred (reduction potential): versus SCE; for E1/2red (reduction potential, footnote d): half-wave potential, footnote d prints [28]
ΦX174 supercoiled DNA [3] = system: ΦX174 supercoiled DNA; parameters: method as in PMID 31671298; settings: previously shown; cited from earlier work
A2780 cells = assay: MTT cytotoxicity, A2780 ovarian cancer cells; settings: read-out: IC50 A2780, 24 h incubation
V79 fibroblasts = assay: MTT cytotoxicity, V79 normal fibroblasts; settings: read-out: IC50 V79, 24 h incubation
HDF fibroblasts = assay: MTT cytotoxicity, HDF normal fibroblasts; settings: read-out: IC50 HDF, 24 h incubation
OVCAR3 cells [4] = assay: Metal distribution in single cells by nuclear microscopy (PIXE); type: cell-based, human; settings: 1 at 45 μM 24 h, 9 at 30 μM 3 h
Protocol: The distribution of copper and gold in treated cells was inspected by nuclear microscopy, making use of the PIXE technique to map and assess elemental contents in single cells. The nuclear microscopy techniques offer several advantages, regarding relatively high spatial resolution and sensitivity for a wide range of elements with physiological roles and those with pharmaceutical interest, in whole cells, while preserving most of their in vivo conditions.
OVCAR3 cells (ca. 1 × 10^6) were prepared for nuclear microscopy experiments by seeding the cells on a 100 nm thick silicon nitride membrane (Silson Ltd., Southam, UK), contained in six-well plates, and incubated overnight as described previously. Cells were incubated with complexes 1 and 9 at concentrations corresponding to the IC50 (45 μM for 24 h and 30 μM for 3 h, respectively). After incubation, the cells were analyzed at the nuclear microscopy facility of the C2TN/IST with a 2.0 MeV proton beam focused down to 3 × 4 µm^2 dimensions. Images of the micro-distributions of Cu and Au in OVCAR3 cells, as well as minor and trace physiological elements (e.g., P, S, K, and Fe), were obtained using the PIXE multielemental technique. Images of whole OVCAR3 cells were taken with 30 × 30 µm^2 scan sizes. Acquisition of data imaging and spectral analysis was performed using OMDAQ 2007 (Oxford Microbeams Ltd., Oxford, UK).

ΦX174 supercoiled DNA [5] = assay: Complex-DNA interaction, agarose gel electrophoretic mobility; type: binding; settings: 0.5-15 µM complex, 24 h at 37 °C
Protocol: Therefore, we focused our studies mostly on the silver (5 and 7) and gold complexes (8 and 9) having the monocamphor ligands ^1A and ^2A, respectively. Complex 1 was also included for comparison. We evaluated the complexes’ ability to interact with DNA, by visualizing in vitro conformational changes in ΦX174 supercoiled DNA using agarose gel electrophoresis assays.
The DNA binding activity of the metal complexes was assessed through their ability to alter the electrophoretic mobilities of the covalently closed circular (ccc) and open circular (oc) forms of ΦX174 supercoiled DNA as previously described. Briefly, a mixture containing 200 ng of ϕX174 DNA (Promega, Madison, WI, USA) and different concentrations of the metal complexes was prepared. After incubation for 24 h at 37 °C in the dark, the samples were run in a 0.8% agarose gel in TAE buffer for 3 h at 90 V. The gel obtained was then stained using a 3× GelRed® (Biotium, Fremont, CA, USA) solution in H2O and imaged in an AlphaImagerEP (Alpha Innotech, San Leandro, CA, USA).

[6] = Complex stability in cellular medium by UV/Vis spectroscopy; type: physicochemical; settings: DMSO, DMEM with 1% DMSO, DMEM with 1% DMSO + 10% FBS; 48 h
Protocol: The stability in cellular medium of the complexes was evaluated for 48 h, using UV/Vis spectroscopy. The absorption spectrum was recorded for each complex dissolved in (a) 100% DMSO, (b) colorless DMEM with 1% DMSO, and (c) colorless DMEM with 1% DMSO + 10% FBS [30]. […] As low concentrations were used in the biological studies, we expect that both the stability and the solubility were not impaired.

[7] = system: caspase-3/7 in OVCAR3 cells; assay: Caspase-3/7 activation (Caspase-Glo 3/7 assay); type: cell-based, human; settings: OVCAR3, 24 h, concentrations below IC50
Protocol: Caspases are a family of cysteine proteases playing central roles in the regulation of cellular processes such as programmed cell death. Among them, caspase-3 and -7 are considered executioners of the apoptosis pathways. We investigated the possible activation of apoptotic events in OVCAR3 cells treated by camphorimine complexes 1, 5, and 9.
The activities of caspase-3 and -7 were assessed using the Caspase-Glo® 3/7 assay (Promega, Madison, WI, USA). The assay kit provides a proluminescent caspase-3/7 substrate (DEVD-aminoluciferin) and luciferase in a reagent optimized for caspase-3/7 activity, luciferase activity, and cell lysis. In the presence of caspase 3/7, this substrate is cleaved, and aminoluciferin is released and consumed by luciferase, which generates a luminescent signal proportional to the caspase activity present in the cells. The assay was carried out in a 96-well plate format with the OVCAR3 cells treated with complexes 1, 5, and 9 for 24 h at concentrations below their IC50 according to a previously described method. […] Results (mean ± SD) were expressed as relative luminescent units (RLU).

OVCAR3 cells [8] = assay: Lipid peroxidation (MDA, TBARS) assay; type: cell-based, human; settings: OVCAR3 cells treated 6 h; 1 at 100 μM, 5 at 50 μM, 9 at 20 μM; mean ± SD
Protocol: Measurement of MDA relies on the detection of thiobarbituric acid (TBA)-reactive compounds generated from the decomposition of lipid peroxidation products. This reaction, which takes place under acidic conditions at 95 °C, results in the formation of an MDA–TBA adduct that can be quantified by its absorbance at 532 nm. […] Additionally, the MDA levels induced by the complexes correlated with the levels of ROS, pointing the involvement of ROS production in the mechanism of action of complexes under study and, consequently, the peroxidation of the membrane lipids, as supported by the correlation between the production of ROS and the levels of lipid peroxides, particularly for complexes 5 and 9.
The malondialdehyde (MDA) content in lipid extracts of OVCAR3 cells was measured using a colorimetric kit (BioVision, Milpitas, CA, USA), a method that relies on the reaction with thiobarbituric acid (TBARS assay). Briefly, OVCAR3 cells (5 × 10^5 cells/2 mL medium) were seeded in six-well plates and left to adhere for 24 h. […] The resulting cell pellet was treated following the kit recommended protocol. […] Then, 200 μL aliquots were then taken and transferred to a 96-well plate for MDA quantification at 532 nm. […]

OVCAR3 cells [9] = assay: Superoxide generation (NBT assay); type: cell-based, human; settings: 1 at 50 and 100 µM, 5 at 20 and 50 µM, 9 at 10 and 20 µM
Protocol: The ROS species superoxide (O2^•−) can be detected with NBT, a cell-permeant dye that can cross the cell membrane and be reduced by intracellular free radicals (superoxide anions) to form formazan particles, which can be detected as blue precipitates in the cells.
The nitro blue tetrazolium (NBT) assay was carried out adapting a previously described method. This assay was used to determine the ability of cells to produce superoxide anion upon treatment with the compounds. During the treatment, NBT is reduced by superoxide anion, resulting in dark-blue formazan particles. […] Then, the medium was discarded, and the blue formazan particles were dissolved in 200 μL of 90% DMSO (90% DMSO:10% NaOH 0.1 N with 0.1% SDS). The resulting NBT formazan was measured at 560 nm using a plate spectrophotometer.

OVCAR3 cells [10] = assay: Intracellular ROS detection by H2DCF-DA; type: cell-based, human; settings: 1-4 at 10-100 µM, 5-9 at 0.1-50 µM, 1 h
Protocol: The molecular probe dichlorodihydrofluorescein diacetate (H2DCF-DA) was used to assess the levels of ROS, e.g., hydrogen peroxide, hydroxyl radicals, and peroxynitrite, generated in response to the effect of the complexes. This compound suffers oxidation and produces a fluorescent compound (DCF) in the presence of ROS [31]. The induction of intracellular ROS by the compounds (metal precursors and copper, silver, and gold complexes) was analyzed at λexc. = 492 nm 517 nm emission using a Varioskan LUX scanning multimode reader (Thermo Fisher Scientific).
Intracellular ROS levels, mainly H2O2, were measured using dihydro-2′7′dichlorofluorescein diacetate (H2DCF-DA). This cell-permeable molecular probe is de-esterified within the cell and turns to highly fluorescent 2′,7′-dichlorofluorescin (DCF) upon oxidation with ROS. For the assays, OVCAR3 cells (2 × 10^4 cells /well) were seeded in 96-well plates and left to adhere overnight. The medium was then replaced with a solution of 10 μM H2DCF-DA in colorless DMEM (FluoroBrite™ DMEM, Gibco®, Waltham, MA, USA) and cells were incubated at 37 °C for 30 min. […] DCF fluorescence was measured using a Varioskan Lux multimode microplate reader (ThermoFisher Scientific, Waltham, MA, USA) at 492 nm excitation and 517 nm emission. Results of fluorescence were expressed as the fold change in fluorescence levels compared with controls.

Compound | IC50 (OVCAR3 cells [1]; MTT, 24 h incubation) [µM] | Epred (reduction potential) [2] [Volt] | E1/2red (reduction potential, footnote d) [2] | IC50 (A2780 cells) [µM] | IC50 (V79 fibroblasts) [µM] | IC50 (HDF fibroblasts) [µM] | SI = selectivity index = IC50(HDF)/IC50(OVCAR3) (OVCAR3 cells [1]) | other results
CC(=O)[O-].[Ag+] [Ag(CH3COO), silver acetate, reference compound] | 3.38 ± 2 | −0.043 |  |  |  |  |  | 
O=[N+]([O-])[O-].[Ag+] [Ag(NO3), silver nitrate, reference compound] |  | 0.18 |  |  |  |  |  | IC50 (OVCAR3 cells [1]): 2.66 ± 1 µM
[Cl][Cu][Cl] [CuCl2, reference compound] | > 100 |  | 0.58 ^d Volt |  |  |  |  | 
[Cl][Cu] [CuCl, reference compound] | > 100 | −0.46 |  |  |  |  |  | 
N.N.[Cl][Pt][Cl] [cisplatin, reference compound] | 13 ± 4.7 |  |  | 21 ± 5 |  |  |  | interaction with DNA (change of electrophoretic mobility) (ΦX174 supercoiled DNA [3]): bind to DNA and induce extensive electrophoretic mobility changes in DNA
[CuCl2((OC10H14N)2C6H4-p)] [Complex 2] | 37.6 ± 8.5 |  | 0.48 ^d Volt | 49.5 ± 14 | > 100 | > 100 | >3 | 
[CuCl2(OC10H14NC6H5)]·HCl·½H2O [Complex 4] | 115 ± 25 |  | 0.47 ^d Volt | > 100 | > 100 | > 100 | >1 | 
[{CuCl}2{OC10H14N(C6H4NH2)}] [Complex 1] | 72.4 ± 9.1 | −0.49 |  | 45.6 ± 11 | 34.5 ± 9.7 | 116 ± 27 | 1.6 | cellular distribution of the metal (OVCAR3 cells [4]): uncharacteristic map of copper distribution; interaction with DNA (change of electrophoretic mobility) (ΦX174 supercoiled DNA [5]): none of them interacted significantly with DNA; stability in cellular medium (UV/Vis spectra) [6]: slightly lower; caspase-3/7 activation [7]: low caspase activation; MDA (lipid peroxide content) (OVCAR3 cells [8]): 290 ± 15 pmoles/10^6 Cells; superoxide ROS levels (NBT reduction) (OVCAR3 cells [9]): increased the ROS levels in a dose-dependent manner; production of ROS (H2DCF-DA, relative to untreated cells) (OVCAR3 cells [10]): followed a similar trend
[{CuCl}3{(OC10H14N)2,μ-C6H4-p)}] [Complex 3] | 37.5 ± 7.7 |  | −0.46 ^d Volt | 43.1 ± 9.1 | 44.9 ± 10 | 48.3 ± 27 | 1.3 | 
